Measurements as given in PubChem BioAssay (NCI).
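How tested: cells in 96-well plates exposed to compound for 48 hours at five concentrations. TGI: total growth inhibition.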

Legend:
Experiment in all cases: inhibition of tumour cell growth, NCI panel, 48 h
[1] = test system: NCI-H522 lung
[2] = test system: SF-295 CNS
[3] = test system: HCC-2998 colon
[4] = test system: HCT-15 colon
[5] = test system: DU-145 prostate
[6] = test system: A549 NSCLC
[7] = test system: SR leukemia
[8] = test system: MOLT-4 leukemia
[9] = test system: ACHN renal
[10] = test system: U251 CNS
[11] = test system: CAKI-1 renal
[12] = test system: COLO 205 colon
[13] = test system: SK-MEL-28 melanoma
[14] = test system: RPMI-8226 leukemia
[15] = test system: MCF7 breast
[16] = test system: PC-3 prostate

Row | SMILES | TGI [1] [µM] | TGI [2] [µM] | TGI [3] [µM] | TGI [4] [µM] | TGI [5] [µM] | TGI [6] [µM] | TGI [7] [µM] | TGI [8] [µM] | TGI [9] [µM] | TGI [10] [µM] | TGI [11] [µM] | TGI [12] [µM] | TGI [13] [µM] | TGI [14] [µM] | TGI [15] [µM] | TGI [16] [µM]
1 | CCOC(=O)c1cc(-c2ccc(Cl)cc2)c([N+](=O)[O-])n1C | > 10 | > 10 | > 10 | > 10 | > 10 | > 10 | > 10 | > 10 | > 10 | > 10 | – | – | – | – | – | –
2 | O=c1[nH]c(=O)n(C2CC(O)C(CO)O2)cc1C#Cc1cc(F)cc(F)c1 (configuration not stated) | > 100 | > 100 | > 100 | > 100 | – | > 100 | – | > 100 | > 100 | > 100 | > 100 | > 100 | > 100 | > 100 | – | –
3 | CN(C(=O)c1cccs1)C(=S)N1CCN(c2ccccc2)CC1 | > 100 | > 100 | > 100 | > 100 | > 100 | > 100 | > 100 | > 100 | > 100 | > 100 | – | > 100 | > 100 | > 100 | > 100 | –
4 | Cc1cc2[nH]c3c(C#N)c(-c4ccccc4)c(CN4CCOCC4)c(=O)n3c2cc1C | > 100 | > 100 | > 100 | > 100 | – | > 100 | – | – | > 100 | > 100 | > 100 | > 100 | > 100 | > 100 | > 100 | > 100
5 | O=C(N/C(=C\c1ccccc1)C1Nc2ccccc2C(=O)O1)c1ccccc1 (configuration not stated) | 33.5 | > 100 | 38.6 | > 100 | > 100 | > 100 | – | 45.1 | > 100 | 51.2 | > 100 | 80.9 | 53.2 | 63.2 | > 100 | > 100
6 | CCOC(=O)NC(=O)c1cn(CCSCCOC(=O)NCCCCCCNC(=O)OCCSCCn2cc(C(=O)NC(=O)OCC)c(=O)[nH]c2=O)c(=O)[nH]c1=O | – | > 100 | – | > 100 | – | > 100 | – | – | > 100 | > 100 | > 100 | > 100 | > 100 | – | – | –
7 | CCN(CC)C1=Nc2ccccc2-n2c(C)cnc2C1 | > 100 | > 100 | > 100 | > 100 | > 100 | > 100 | – | > 100 | > 100 | > 100 | > 100 | > 100 | > 100 | > 100 | > 100 | > 100
8 | COc1cccc(-n2c(N)c(-c3nc4cc(C(F)(F)F)ccc4s3)c3ccc([N+](=O)[O-])cc3c2=O)c1 | > 100 | > 100 | > 100 | > 100 | > 100 | > 100 | – | > 100 | > 100 | > 100 | > 100 | > 100 | > 100 | > 100 | > 100 | > 100
9 | CC(NC(=O)C(N)CC(=O)O)NC(=O)N1CCCC1 (configuration not stated) | > 100 | > 100 | > 100 | > 100 | > 100 | > 100 | – | > 100 | > 100 | > 100 | > 100 | > 100 | > 100 | > 100 | > 100 | > 100
10 | Cc1cc(C#N)c(Nc2c(C)cccc2[N+](=O)[O-])s1 | 73.6 | > 100 | > 100 | > 100 | > 100 | > 100 | > 100 | > 100 | > 100 | > 100 | > 100 | > 100 | > 100 | > 100 | – | 54.4
11 | COc1ccc(-c2nnc(CCCCCCCCc3nnc(-c4ccc(OC)cc4)o3)o2)cc1 | > 100 | > 100 | > 100 | > 100 | > 100 | > 100 | – | > 100 | > 100 | > 100 | > 100 | > 100 | > 100 | – | > 100 | > 100
12 | CC(=O)Nc1ccc(-c2nc3ccccc3s2)cc1O | 9.85 | > 100 | > 100 | > 100 | > 100 | > 100 | > 100 | 85.6 | > 100 | > 100 | > 100 | > 100 | > 100 | > 100 | – | > 100
13 | CC1=NN(C(=O)Cc2ccccc2)C(=O)/C1=C\c1ccco1 | > 100 | > 100 | > 100 | > 100 | – | > 100 | > 100 | > 100 | > 100 | – | > 100 | > 100 | > 100 | > 100 | – | –
14 | COc1ccc([C@@H]2CC(=O)NCCCCNCCCN2)cc1 | > 100 | > 100 | – | > 100 | – | > 100 | > 100 | > 100 | > 100 | > 100 | > 100 | > 100 | > 100 | > 100 | – | –
15 | S=C(Nc1ccccc1)N1N=C2c3ccccc3CC[C@H]2[C@@H]1c1ccccc1 | 4.12 | – | > 100 | > 100 | – | > 100 | 1.96 | > 100 | > 100 | > 100 | – | – | > 100 | > 100 | – | –
16 | Cc1cc(NCCCCCCNc2cc(C)nc3ccc(Cl)cc23)c2cc(Cl)ccc2n1 | 30.7 | 31.2 | 30.3 | 33.1 | – | 45.9 | > 100 | > 100 | > 100 | 30.6 | > 100 | 32.3 | 32 | > 100 | – | –
17 | COc1cc(C=O)c(-c2cc3c(cc2C=O)OCO3)c(OC)c1OC | 119 | 219 | > 290 | 279 | – | > 290 | > 290 | > 290 | > 290 | > 290 | > 290 | > 290 | > 290 | > 290 | – | –

Row | SMILES | TGI [1] [µM] | TGI [2] [µM] | TGI [3] [µM] | TGI [4] [µM] | TGI [5] [µM] | TGI [6] [µM] | TGI [7] [µM] | TGI [8] [µM] | TGI [9] [µM] | TGI [10] [µM] | TGI [11] [µM] | TGI [12] [µM] | TGI [13] [µM] | TGI [14] [µM] | TGI [15] [µM] | TGI [16] [µM]
18 | CCNCCCCNCC | > 3750 | > 3750 | > 3750 | > 3750 | – | > 3750 | – | > 3750 | – | > 3750 | > 3750 | > 3750 | > 3750 | > 3750 | > 3750 | –
19 | CN1OC2OC(=O)OC2[C@H]1[C@H]1O[C@H](c2ccccc2)OC1(C)c1cc(OC(=O)c2ccccc2)ccc1OC(=O)c1ccccc1 (some centres not stated) | > 50 | – | – | > 50 | – | > 50 | > 50 | > 50 | > 50 | > 50 | > 50 | > 50 | > 50 | > 50 | – | –
20 | c1ccc2c(c1)C(=Nc1ccc(N=C3c4ccccc4-c4ccccc43)cc1)c1ccccc1-2 | > 100 | > 100 | > 100 | > 100 | > 100 | > 100 | – | > 100 | – | > 100 | > 100 | > 100 | – | > 100 | > 100 | > 100
21 | Cc1c2cccc-2c(OCCO)cc2c1[nH]c1ccccc12 | 5.38 | 14.7 | 12.1 | 22.9 | > 50.1 | 11.6 | – | 20.1 | 2.72 | 3.78 | 3.67 | 9.4 | 20.6 | 8.52 | 19.4 | 7.89
22 | CCCCOC(=O)C1CN2C(=NC1(C(F)(F)F)C(F)(F)F)Sc1ccccc12 (configuration not stated) | – | > 100 | – | > 100 | > 100 | > 100 | – | 84.6 | > 100 | > 100 | > 100 | > 100 | > 100 | > 100 | > 100 | 42.4
23 | CCOP(C)(=O)C(Nc1ccc(F)cc1)c1ccc(F)cc1 (configuration not stated) | > 100 | > 100 | > 100 | > 100 | > 100 | > 100 | > 100 | > 100 | > 100 | > 100 | > 100 | > 100 | > 100 | > 100 | – | > 100
24 | O=C(Nc1c(Cl)cc([N+](=O)[O-])cc1Cl)/C(=N\Nc1cccc(Cl)c1)c1c(O)c2ccccc2oc1=O | > 100 | > 100 | > 100 | – | – | > 100 | > 100 | > 100 | > 100 | – | – | > 100 | > 100 | > 100 | – | –
25 | C/C(=N/N)c1ccc2[nH]c3c(C)cc([N+](=O)[O-])c(C)c3c2c1 | 36.7 | 35.5 | 31.6 | 24.7 | – | 40.6 | – | 19.8 | 21.6 | – | – | 25.5 | 24.5 | 64 | – | –
26 | C[C@@H]1OC(=O)/C(=C\N(C)C)[C@H]2CC(=O)N(CCc3cn(S(=O)(=O)C(F)(F)F)c4ccccc34)C[C@H]12 | > 100 | > 100 | > 100 | > 100 | – | > 100 | – | > 100 | > 100 | > 100 | > 100 | > 100 | > 100 | > 100 | > 100 | > 100
27 | COC(=O)NN1C(=O)C(=P(c2ccccc2)(c2ccccc2)c2ccccc2)C(C(=O)OC)=C1C | > 100 | > 100 | – | > 100 | – | – | – | > 100 | > 100 | > 100 | > 100 | > 100 | > 100 | > 100 | – | –
28 | O=C(c1ccccc1)c1c(CNCc2ccccc2)n(C(=O)c2ccccc2)c2ccccc12 | 81.8 | 41.7 | > 100 | > 100 | – | > 100 | 80.7 | 65.5 | > 100 | > 100 | > 100 | > 100 | > 100 | 55.1 | – | –
29 | COc1cc2c(cc1OC)C(Cc1c3ccccc3cc3ccccc13)N(C)CC2 (configuration not stated) | 60 | 33.8 | – | > 87.6 | – | > 100 | – | 58.3 | – | 35.6 | > 100 | 29.7 | 46.8 | 34 | 33.7 | –
30 | C/C(=N\Nc1nc2ccccc2o1)c1ccncn1 | > 32.7 | > 100 | 29 | > 58.1 | – | > 32.7 | > 100 | > 100 | > 100 | > 36.4 | 42.6 | > 51.3 | > 100 | – | > 43.8 | 36.6
31 | COc1cc2c(cc1O)C(C)Cc1cc3c(cc1N(C)CC2)OCO3 (configuration not stated) | 4.94 | 10.3 | 19.5 | 42.7 | – | 32.6 | > 100 | 36.5 | 74.1 | 14.8 | > 74.3 | > 58.8 | 45.8 | > 33.9 | – | –
32 | O=C(CSc1nnc(-c2ccc(N=Cc3ccc(Cl)cc3)cc2)o1)Nc1cccc(Cl)c1 | > 100 | > 100 | – | > 100 | – | > 100 | > 100 | > 100 | > 100 | > 100 | – | > 100 | > 100 | > 100 | – | –
33 | CC1(C)C2CCC1(CC(=O)O)C(Cl)C2 (configuration not stated) | > 100 | > 100 | > 100 | > 100 | > 100 | > 100 | – | > 100 | > 100 | > 100 | > 100 | > 100 | > 100 | > 100 | > 100 | > 100
34 | Cc1cc(N=Nc2ccc(N=Nc3c(O)c(S(=O)(=O)O)cc4cc(S(=O)(=O)O)ccc34)cc2C)ccc1N=Nc1ccc2cc(S(=O)(=O)O)cc(S(=O)(=O)O)c2c1 | > 100 | > 100 | > 100 | > 100 | – | > 100 | – | > 100 | – | > 100 | – | > 100 | > 100 | > 100 | > 100 | –
